Key:
T241 fibrosarcomas = experiment: Adoptive transfer, T241 tumors in C57BL/6 mice; format: in vivo; conditions: combination study, TNP-470 30 mg/kg s.c. every other day, daily IL-2, FIG. 5C
Method: (§1) On day 0, tumor cells were implanted into the subcutaneous space on the right flank of recipient mice. On the days of treatment, CTLs (4 to 7 post-transduction) were harvested, washed, resuspended in cold PBS, and injected in a volume of 300 μl into the retro-orbital venous plexus. […] TNP-470 (TAP Holdings Inc., Deerfield, Ill.) (30 mg/kg) was injected subcutaneously (into a site remote from the tumor) every other day in 0.3 ml PBS starting with the first day of CTL therapy. Starting volumes of tumors ranged from 40 to 80 mm^3. All mice were sacrificed when control mice reached a mean tumor volume of 2,000 mm^3 or had extensive tumor ulceration.

B16.F10 murine melanomas = experiment: Adoptive transfer, subcutaneous B16.F10 tumors in C57BL/6 mice; format: in vivo; conditions: combination study, TNP-470 30 mg/kg s.c. every other day, daily IL-2, FIG. 5B
Method: as §1, with “mm^3.” for “mm^3. All mice were sacrificed when control mice reached a mean tumor volume of 2,000 mm^3 or had extensive tumor ulceration.”

[1] = Toxicity observations in treated tumor-bearing mice; format: in vivo; conditions: TNP-470 alone
Method: as §1

[2] = system: CT26 murine colon adenocarcinomas; experiment: Adoptive transfer, subcutaneous CT26 tumors in BALB/c mice; format: in vivo; conditions: combination study, TNP-470 30 mg/kg s.c. every other day, daily IL-2, FIG. 5A
Method: as §1, with “mm^3.” for “mm^3. All mice were sacrificed when control mice reached a mean tumor volume of 2,000 mm^3 or had extensive tumor ulceration.”

Flk-1 = Flk-1 (Mus musculus, UniProt P35918); conditions: Millauer 1993; Quinn 1993; cited from earlier work
Sequence of Flk-1 (P35918 20-1345): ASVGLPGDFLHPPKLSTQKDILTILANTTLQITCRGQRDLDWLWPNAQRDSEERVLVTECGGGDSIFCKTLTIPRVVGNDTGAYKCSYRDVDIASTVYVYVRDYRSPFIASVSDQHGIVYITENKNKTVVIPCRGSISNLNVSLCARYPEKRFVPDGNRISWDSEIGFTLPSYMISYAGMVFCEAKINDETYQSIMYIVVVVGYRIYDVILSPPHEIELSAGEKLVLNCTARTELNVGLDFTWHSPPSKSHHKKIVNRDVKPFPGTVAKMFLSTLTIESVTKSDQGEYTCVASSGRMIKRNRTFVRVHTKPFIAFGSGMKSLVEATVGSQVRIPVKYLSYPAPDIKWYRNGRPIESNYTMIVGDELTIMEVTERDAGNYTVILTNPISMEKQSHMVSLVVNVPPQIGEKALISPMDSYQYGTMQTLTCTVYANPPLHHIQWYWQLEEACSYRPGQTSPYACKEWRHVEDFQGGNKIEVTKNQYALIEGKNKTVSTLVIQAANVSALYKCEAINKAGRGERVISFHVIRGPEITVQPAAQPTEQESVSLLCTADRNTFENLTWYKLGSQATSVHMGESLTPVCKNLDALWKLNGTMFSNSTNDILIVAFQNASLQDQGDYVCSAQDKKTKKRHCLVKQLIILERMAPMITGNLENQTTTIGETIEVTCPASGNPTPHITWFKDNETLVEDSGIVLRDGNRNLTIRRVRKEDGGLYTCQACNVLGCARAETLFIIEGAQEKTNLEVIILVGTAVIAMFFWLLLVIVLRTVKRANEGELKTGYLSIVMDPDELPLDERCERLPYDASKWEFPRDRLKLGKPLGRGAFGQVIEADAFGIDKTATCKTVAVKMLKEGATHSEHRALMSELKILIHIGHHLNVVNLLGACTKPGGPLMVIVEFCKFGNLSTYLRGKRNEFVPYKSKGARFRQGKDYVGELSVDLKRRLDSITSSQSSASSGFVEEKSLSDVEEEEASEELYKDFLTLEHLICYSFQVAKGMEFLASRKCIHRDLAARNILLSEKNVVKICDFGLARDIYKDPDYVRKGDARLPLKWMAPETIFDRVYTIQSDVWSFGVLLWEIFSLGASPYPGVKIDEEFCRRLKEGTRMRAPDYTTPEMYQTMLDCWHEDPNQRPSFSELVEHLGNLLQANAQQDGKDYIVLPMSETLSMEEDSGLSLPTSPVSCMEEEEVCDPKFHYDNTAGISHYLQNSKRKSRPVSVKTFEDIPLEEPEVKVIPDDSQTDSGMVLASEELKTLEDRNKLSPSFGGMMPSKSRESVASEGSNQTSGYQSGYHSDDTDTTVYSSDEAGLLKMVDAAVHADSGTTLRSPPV

human KDR-Fc (VEGFR2) = target: T1, human KDR-Fc (VEGFR2) (Homo sapiens, UniProt P35968); format: binding
T1 construct: purchased R & D Systems
T1 sequence (P35968 20-764 limits assumed): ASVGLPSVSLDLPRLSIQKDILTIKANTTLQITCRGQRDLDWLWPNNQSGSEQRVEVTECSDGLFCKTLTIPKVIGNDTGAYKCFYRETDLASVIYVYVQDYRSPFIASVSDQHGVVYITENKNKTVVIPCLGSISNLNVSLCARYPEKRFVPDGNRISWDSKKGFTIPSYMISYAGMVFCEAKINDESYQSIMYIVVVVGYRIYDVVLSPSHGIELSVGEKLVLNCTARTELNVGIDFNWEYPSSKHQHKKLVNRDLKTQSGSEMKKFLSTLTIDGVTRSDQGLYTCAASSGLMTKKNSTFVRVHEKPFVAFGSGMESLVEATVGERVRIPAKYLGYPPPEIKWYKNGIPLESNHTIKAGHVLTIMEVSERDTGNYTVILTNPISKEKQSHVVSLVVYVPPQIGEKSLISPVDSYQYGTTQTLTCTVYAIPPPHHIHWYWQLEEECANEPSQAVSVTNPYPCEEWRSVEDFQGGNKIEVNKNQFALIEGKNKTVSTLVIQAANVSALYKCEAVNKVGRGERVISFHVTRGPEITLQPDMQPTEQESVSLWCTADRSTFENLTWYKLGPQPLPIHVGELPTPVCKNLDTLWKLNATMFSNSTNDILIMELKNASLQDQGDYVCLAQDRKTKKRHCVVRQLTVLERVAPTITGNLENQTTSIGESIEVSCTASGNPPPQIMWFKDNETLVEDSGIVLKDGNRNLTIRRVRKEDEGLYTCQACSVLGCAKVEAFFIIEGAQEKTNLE
Method: High-titer retrovirus encoding the gene for a soluble form of Flk-1, Flk-Fc, were used to infect 293T cells. Conditioned medium from these transduced cells was collected and subjected to Western blot analysis by using either antibody directed against Flk-1 or ^125I-labeled protein A to confirm the presence of both the Flk-1 and Fc portions of the fusion protein. For FACS analysis of HeLa-VEGF-cTcR cells, 2 ml of conditioned medium from these transduced cells or control media from untransduced 293T cells was used as the primary reagent. The cells were then washed and incubated with anti-mouse IgG2a-PE (Chemicon) and analyzed. For the VEGF-cTcR/KDR-Fc binding study, VEGF-cTcR clone 2 cells were incubated with increasing amounts of human KDR-Fc (R & D Systems), washed twice with PBS, and stained with anti-human IgG1-FITC antibody. For analysis of transduced CTLs, cells were incubated successively with anti-human c-Myc antibody, biotinylated anti-mouse IgG, and streptavidin-PE or only with anti-mouse CD8 antibody conjugated to FITC (Pharmingen).

Row | Molecule | inhibition of T241 fibrosarcoma growth (T241 fibrosarcomas) | inhibition of B16.F10 melanoma growth (B16.F10 murine melanomas) | weight loss ([1]; 30 mg/kg s.c. every other day) | reaction at the TNP-470 injection site ([1]; occasionally) | inhibition of CT26 adenocarcinoma growth [2] | binding affinity reported for association of native VEGF and Flk-1 (Flk-1) | inhibition of KDR-Fc binding to VEGF-cTcR clone 2 cells (human KDR-Fc (VEGFR2))
1 | CO[C@@H]1[C@H](OC(=O)NC(=O)CCl)CC[C@]2(CO2)[C@H]1[C@@]1(C)O[C@@H]1CC=C(C)C [TNP-470] | 73% | 71% | up to 10 % of total body weight | mild skin breakdown | 70% | – | –
2 | VEGF | – | – | – | – | – | 0.1 to 0.5 nM | inhibited in a dose-dependent manner
